A short description of this series: in vitro. Particulars: human, hek293t cells.
As for `C=CC(=O)N[C@@H](C)c1ccccc1OC` [1-K06, N-[(1S)-1-(2-methoxyphenyl)ethyl]prop-2-enamide], the viability at 48 h, 25 µM was 84.3%.

For the compound `C=CC(=O)NCC1CSCCS1` (stereo not drawn) [1-K07, N-[(1,4-dithian-2-yl)methyl]prop-2-enamide], the viability at 48 h, 25 µM amounted to 78.1%.

Turning to `C=CC(=O)NCc1ccsc1-n1cccc1` [1-K08, N-{[2-(1H-pyrrol-1-yl)thiophen-3-yl]methyl}prop-2-enamide], the viability at 48 h, 25 µM was 153%.

As for `C=CC(=O)N1CCn2cccc2C12COC2` [1-K09, 1-{3',4'-dihydro-2'H-spiro[oxetane-3,1'-pyrrolo[1,2-a]pyrazin]-2'-yl}prop-2-en-1-one], the viability at 48 h, 25 µM is 80.6%.

With `C=CC(=O)NCc1ccc(OC)cc1` [1-K10, N-[(4-methoxyphenyl)methyl]prop-2-enamide], the viability at 48 h, 25 µM amounted to 92%.

For the compound `C=CC(=O)Nc1cc(S(=O)(=O)N(C)C)cc(C)c1C` [1-K11, N-[5-(dimethylsulfamoyl)-2,3-dimethylphenyl]prop-2-enamide], the viability at 48 h, 25 µM is 71.3%.

As for `C=CC(=O)NC1CCCN(Cc2ccccc2)C1` (stereo not drawn) [1-K12, N-(1-benzylpiperidin-3-yl)prop-2-enamide], the viability at 48 h, 25 µM was 82.8%.

Turning to `C=CC(=O)N1CCC(NC(=O)Nc2ccccc2OC)CC1` [1-K13, 3-(2-methoxyphenyl)-1-[1-(prop-2-enoyl)piperidin-4-yl]urea], the viability at 48 h, 25 µM came out at 106%.

On to `C=CC(=O)Nc1cccc(-c2cn(C)nn2)c1` [1-K14, N-[3-(1-methyl-1H-1,2,3-triazol-4-yl)phenyl]prop-2-enamide], for which the viability at 48 h, 25 µM came to 82.8%.

On to `C=CC(=O)Nc1ccc(C(=O)Nc2ccc(N3CCOCC3)nc2)cc1` [1-K15, N-[6-(morpholin-4-yl)pyridin-3-yl]-4-(prop-2-enamido)benzamide], for which the viability at 48 h, 25 µM amounted to 1.79%.

As to `C=CC(=O)Nc1ccc(-c2noc(C)n2)cc1` [1-K16, N-[4-(5-methyl-1,2,4-oxadiazol-3-yl)phenyl]prop-2-enamide], the viability at 48 h, 25 µM was 60.2%.

As to `C=CC(=O)NC12CC3(C)CC(C)(CC(O)(C3)C1)C2` [1-K17, N-(3-hydroxy-5,7-dimethyladamantan-1-yl)prop-2-enamide], the viability at 48 h, 25 µM came to 85.3%.

`C=CC(=O)NC1CCN(S(N)(=O)=O)CC1` [1-K18, N-(1-sulfamoylpiperidin-4-yl)prop-2-enamide]: the viability at 48 h, 25 µM amounted to 93.7%.

Turning to `C=CC(=O)Nc1cc(-c2ccco2)nn1C(C)(C)C` [1-K19, N-[1-tert-butyl-3-(furan-2-yl)-1H-pyrazol-5-yl]prop-2-enamide], the viability at 48 h, 25 µM turned out to be 118%.

Turning to `C=CC(=O)N1CC(c2cc(CO)on2)C1` [1-K20, 1-{3-[5-(hydroxymethyl)-1,2-oxazol-3-yl]azetidin-1-yl}prop-2-en-1-one], the viability at 48 h, 25 µM was 103%.

As to `C=CC(=O)NCC(CC)n1nc(C)cc1C` (stereo not drawn) [1-K21, N-[2-(3,5-dimethyl-1H-pyrazol-1-yl)butyl]prop-2-enamide], the viability at 48 h, 25 µM came out at 108%.

Consider `C=CC(=O)N1CCC(n2ncc3ccccc32)CC1` [1-K22, 1-[4-(1H-indazol-1-yl)piperidin-1-yl]prop-2-en-1-one], for which the viability at 48 h, 25 µM came to 94.9%.

As to `C=CC(=O)NC1CCN(c2nc(C3CC3)cc(C(F)(F)F)n2)CC1` [1-L03, N-{1-[4-cyclopropyl-6-(trifluoromethyl)pyrimidin-2-yl]piperidin-4-yl}prop-2-enamide], the viability at 48 h, 25 µM is 108%.

As to `C=CC(=O)N1CCC(C(=O)NC(C)(C)c2ccc(F)c(F)c2)CC1` [1-L04, N-[2-(3,4-difluorophenyl)propan-2-yl]-1-(prop-2-enoyl)piperidine-4-carboxamide], the viability at 48 h, 25 µM stood at 91.1%.

For `C=CC(=O)NCc1cc(Cl)c2c(c1)OCCO2` [1-L05, N-[(8-chloro-2,3-dihydro-1,4-benzodioxin-6-yl)methyl]prop-2-enamide], the viability at 48 h, 25 µM came to 112%.

For the compound `C=CC(=O)NCCc1cnc2c(Cl)cnn2c1` [1-L06, N-(2-{3-chloropyrazolo[1,5-a]pyrimidin-6-yl}ethyl)prop-2-enamide], the viability at 48 h, 25 µM stood at 74.5%.

With `C=CC(=O)N1CCC(OC2CCCC2)CC1` [1-L07, 1-[4-(cyclopentyloxy)piperidin-1-yl]prop-2-en-1-one], the viability at 48 h, 25 µM came out at 96.8%.

On to `C=CC(=O)N1CCOC2(CCCCCC2)C1` [1-L08, 1-{1-oxa-4-azaspiro[5.6]dodecan-4-yl}prop-2-en-1-one], for which the viability at 48 h, 25 µM is 73.9%.

On to `C=CC(=O)N(Cc1ccc2c(c1)CCC2)Cc1c(C)noc1C` [1-L09, N-[(2,3-dihydro-1H-inden-5-yl)methyl]-N-[(3,5-dimethyl-1,2-oxazol-4-yl)methyl]prop-2-enamide], for which the viability at 48 h, 25 µM worked out at 92.1%.

Turning to `C=CC(=O)NCc1cc(C2CC2)nn1C` [1-L10, N-[(3-cyclopropyl-1-methyl-1H-pyrazol-5-yl)methyl]prop-2-enamide], the viability at 48 h, 25 µM is 92.5%.

Take `C=CC(=O)NCC(=O)Nc1ccc2c[nH]nc2c1` [1-L11, N-{[(2H-indazol-6-yl)carbamoyl]methyl}prop-2-enamide]: the viability at 48 h, 25 µM amounted to 89.7%.

For the compound `C=CC(=O)N1CCOCC1c1ncnn1Cc1ccccc1` (stereo not drawn) [1-L12, 1-[3-(1-benzyl-1H-1,2,4-triazol-5-yl)morpholin-4-yl]prop-2-en-1-one], the viability at 48 h, 25 µM was determined as 63.7%.

`C=CC(=O)N(Cc1cc(F)c(F)c(F)c1)C(C)C1CCCO1` (stereo not drawn) [1-L13, N-[1-(oxolan-2-yl)ethyl]-N-[(3,4,5-trifluorophenyl)methyl]prop-2-enamide]: the viability at 48 h, 25 µM amounted to 176%.

As to `C=CC(=O)N1CC(C)(C)c2cc(Cl)ccc21` [1-L14, 1-(5-chloro-3,3-dimethyl-2,3-dihydro-1H-indol-1-yl)prop-2-en-1-one], the viability at 48 h, 25 µM is 1.22%.

With `C=CC(=O)N(Cc1cccs1)C1CCc2cnn(C(C)C)c2C1` (stereo not drawn) [1-L15, N-[1-(propan-2-yl)-4,5,6,7-tetrahydro-1H-indazol-6-yl]-N-[(thiophen-2-yl)methyl]prop-2-enamide], the viability at 48 h, 25 µM was 82.3%.

As to `C=CC(=O)N(C)Cc1ccn(CC)n1` [1-L16, N-[(1-ethyl-1H-pyrazol-3-yl)methyl]-N-methylprop-2-enamide], the viability at 48 h, 25 µM was 75.2%.

As for `C=CC(=O)NCc1ccc(C(=O)N2CCOCC2)cc1` [1-L17, N-{[4-(morpholine-4-carbonyl)phenyl]methyl}prop-2-enamide], the viability at 48 h, 25 µM turned out to be 81.2%.

For `C=CC(=O)N1CCC[C@H]1Cn1cc(C2CC2)nn1` [1-L18, 1-[(2S)-2-[(4-cyclopropyl-1H-1,2,3-triazol-1-yl)methyl]pyrrolidin-1-yl]prop-2-en-1-one], the viability at 48 h, 25 µM stood at 92.2%.

For the compound `C=CC(=O)N1CCCc2cccc(F)c21` [1-L19, 1-(8-fluoro-1,2,3,4-tetrahydroquinolin-1-yl)prop-2-en-1-one], the viability at 48 h, 25 µM was found to be 112%.

Consider `C=CC(=O)N1CCCC(Cc2noc(C)n2)C1` (stereo not drawn) [1-L20, 1-{3-[(5-methyl-1,2,4-oxadiazol-3-yl)methyl]piperidin-1-yl}prop-2-en-1-one], for which the viability at 48 h, 25 µM is 72.5%.

Turning to `C=CC(=O)Nc1ccc2ccn(CCN(C)C)c2c1` [1-L21, N-{1-[2-(dimethylamino)ethyl]-1H-indol-6-yl}prop-2-enamide], the viability at 48 h, 25 µM is 113%.
